Experimental data from US11236378B2 (priority 2015, dated 2022).

Tested on: HEK293T cells
Details: human

COc1ncc(-c2ccc3nc(N)n(-c4ccc(N5CCOCC5)cc4)c3c2)cc1S(=O)(=O)Nc1ccccc1F [A1, 5-(2-amino-1-(4-(4-morpholinyl)phenyl)-1H-benzimidazol-6-yl)-N-(2-fluorophenyl)-2-methoxy-3-pyridinesulfonamide]
concentration that killed most of the cells: ≥ 250 nM
